From US6476037B1, “L-arginine and phosphodiesterase (PDE) inhibitor synergism” (The Regents of the University of California, priority 2000, dated 2002)
Like-named read-outs stand apart in the source and are kept apart here.

Tests used:
[1] = Serum L-arginine and L-citrulline concentrations after IV L-arginine boluses; assay type: in vivo, swine
Description: 2. L-Arginine Administration: A bolus dose of 1-arginine (60 cc of 10% 1-arginine (6 grams)) was administered intravenously. Five minutes later a blood sample was taken. The dose was then repeated. This procedure was repeated a total of five times (total of 300 cc of 10% 1-arginine (30 grams) administered). Thirty minutes were allowed to elapse and then a final blood sample collected.
Blood samples were collected in serum separator tubes and immediately placed on ice. Tubes were centrifuged for 20 minutes and the serum removed and stored in cryovials at −80° C. L-arginine and 1-citrulline levels were quantified by the Protein Structure Lab at the University of California, Davis (Davis, Calif.) with an ion-exchange chromatographer (Beckman 6300 aminoacid analyzer, Fullerton, Calif.). Serum osmolality was measured using an osmometer (Advanced Instruments, Needleham Heights, Mass.) by the Veternary Medical Teaching Hospital Diagnostic Laboratories (Davis, Calif.).

[2] = cited from earlier work
[3] = tested on: Systemic and Coronary Vasculature of the Pig; test: Hemodynamic effects in chronically instrumented, anesthetized swine; assay type: in vivo
Description: Chronically instrumented female swine (70 kg, n=10) (ascending aortic and left anterior descending (LAD) coronary artery transit time flow probes, carotid and internal jugular pressures) were administered five doses of 1-arginine in five-minute intervals. After a period of recovery, four doses of nitroglycerin (1, 2, 3, 4 μg/kg/min) were infused. Sildenafil (100 mg IV) was administered and the 1-arginine and nitroglycerin administrations repeated.
After approval by the Institutional Animal Care and Use Committee, 70 kg female domestic swine (70.5±2.6 kg) were sedated with ketamine (25 mg/kg IM). Mask induction with isoflurane was followed by intubation with an endotracheal tube (6.0 ID 45 cm long). An angiocathether (20 gauge) was placed in an ear vein for IV fluid administration. Prophylactic antibiotics (cefazolin 1 gram IV prior to incision followed by cephalexin 500 mg PO BID) were given. The animal was ventilated with 100% oxygen and isoflurane to maintain anesthesia. A left thoracotomy (T4-5) was performed under sterile conditions. Transonics® (Ithaca, N.Y.) transit time flow probes were placed on the ascending aorta (model 28A) and the proximal left anterior descending coronary artery (3 mm, model 3S). The flow probe cables were tunneled to the animal's back. The thoracotomy was closed and air evacuated with a chest tube. The animals were given ketorolac (30 mg IV) followed by buprenorphine (0.3 to 0.6 mg IM Q8 hours for 5 days) for postoperative pain. The animals were allowed to recover for a minimum of two days before experimentation.
Previously instrumented swine were sedated with ketamine (25 mg/kg IM) and mask-induced with isoflurane. An angiocatheter (20 gauge) was placed in an ear vein for IV fluid administration. Animals were intubated (6.0 ID 45 cm long tube) and ventilated with 100% oxygen and isoflurane. Prophylactic antibiotics were given (cefazolin 1 gm IV). The animal's neck was then opened using sterile technique. Angiocatheters (16 gauge) were placed in the left and right internal jugular veins for central venous pressure monitoring and for drug and fluid infusions. An angiocatheter (20 gauge) was placed in the common carotid artery for blood sampling and pressure measurement. Arterial and central venous pressures were measured with disposable pressure transducers (Abbott Critical Care Systems Transpac® IV, North Chicago, Ill.) and the Transonics® Transit Time Flow meter (Model 206 with (-R) pRessure Option, Ithaca, N.Y.). ECG was monitored (Electronics for Medicine Monitor Model OM). The neck was closed. A supra-pubic bladder catheter was placed using sterile technique for urinary drainage. Data was recorded at 100 Hz using WinDaq data acquisition software (Transonics Systems, Ithaca, N.Y.). The pressure transducers were calibrated using a mercury manometer. Flow probes were calibrated prior to use.
Fentanyl (2 mg), diazepam (20 mg), and pancuronium (10 mg) were administered as a bolus. Isoflurane was simultaneously discontinued.

[4] = L-arginine levels after oral or intravenous L-arginine supplementation; assay type: in vivo; details: preliminary trial, bolus 30 grams over 15 minutes; from 81±8
Description: With respect to the coronary disease applications, we note that L-arginine levels without supplementation are about 116±14 mmol/L and oral administration elevates the levels to about 224±26 mmol/L with improvement in vasomotor function. […] Intravenous infusions (10 mg/kg/min) raised L-arginine levels from about 102±5 to about 8172±122 mmol/L and caused vasodilation. In our preliminary trial a bolus of L-arginine (30 grams over 15 minutes) elevated levels (81±8 to 6900±600 μmol). In preferred embodiments, there were two fundamentally different ranges of L-Arginine levels achieved. Levels that were 1.5 to 2 times baseline and levels that were 50 to 100 times baseline.

[5] = L-arginine pharmacokinetic parameters from preliminary clinical and animal data; assay type: in vivo
Description: Computer simulation of the predicted L-arginine levels from the high dose (1 mcg/kg/min) yield levels of 420 mmol/L. (T1/2=10 minutes, Volume distribution=0.36 L/kg: obtained from our preliminary clinical and animal data). Computer simulations of the low dose (0.5 mcg/kg/min) yield levels of 260 mmol/L. These doses are in the range to improve endothelial function and prevent vasospasm but will not cause significant vasodilation.

[6] = l-arginine alone, five 6 gram IV boluses at 5 min intervals, mean±SE
[7] = first administration of sildenafil, 100 mg IV bolus, mean±SE
[8] = first dose of sildenafil, 100 mg IV bolus

## Cl.N=C(N)NCCC[C@H](N)C(=O)O [L-Arginine, 1-arginine hydrochloride]
[1]; 5 min after Dose #1 (6 grams IV), no sildenafil
  Serum [L-Arginine]: 1987.0 ± 116.8 µM
[1]; 5 min after Dose #2 (6 grams IV each), no sildenafil
  Serum [L-Arginine]: 3139.2 ± 129.6 µM
[1]; 5 min after Dose #3 (6 grams IV each), no sildenafil
  Serum [L-Arginine]: 4143.3 ± 205.4 µM
[1]; 5 min after Dose #4 (6 grams IV each), no sildenafil
  Serum [L-Arginine]: 5232.7 ± 364.6 µM
[1]; 5 min after Dose #5 (total 30 grams IV), no sildenafil
  Serum [L-Arginine]: 5922.1 ± 307.4 µM
[1]; 5 min after L-arginine Dose #1 (6 grams IV), no sildenafil
  Serum [L-Citrulline]: 54.7 ± 5.2 µM
[1]; 5 min after L-arginine Dose #2, no sildenafil
  Serum [L-Citrulline]: 53.2 ± 4.2 µM
[1]; 5 min after L-arginine Dose #3, no sildenafil
  Serum [L-Citrulline]: 54.9 ± 4.4 µM
[1]; 5 min after L-arginine Dose #4, no sildenafil, hydrochloride
  Serum [L-Citrulline]: 61.5 ± 6.7 µM
[1]; 5 min after L-arginine Dose #4, no sildenafil, listed as 1-arginine, hydrochloride
  Serum [L-Citrulline]: 61.5 ± 6.7 µM
[1]; 5 min after L-arginine Dose #5, no sildenafil
  Serum [L-Citrulline]: 60.2 ± 5.9 µM
[1]; 30 min Post last L-arginine dose, no sildenafil
  Serum [L-Citrulline]: 60.5 ± 7.1 µM
[1]; 30 min Post last dose, no sildenafil
  Serum [L-Arginine]: 2592.7 ± 268.9 µM
[2]; intravenous infusions 10 mg/kg/min, from about 102±5
  L-arginine levels: about 8172±122 mmol/L
[2]; oral administration, without supplementation about 116±14
  L-arginine levels: about 224±26 mmol/L
[3]; [6]
  CO, Max Effect: 8.9 ± 0.5 L/min
  CVP, Max Effect: 12.0 ± 1.0 mmHg
  CVR, Max Effect: 89.1 ± 4.7 dynes*sec*cm^−5*10^3
  HR, Max Effect: 106.5 ± 6.7 beats/min
  MAP, Max Effect: 107.4 ± 6.4 mmHg
  SVR, Max Effect: 825.0 ± 39.3 dynes*sec*cm^−5
[3]; l-arginine alone, five 6 gram IV boluses at 5 min intervals, mean±SE, hydrochloride
  LAD Flow, Max Effect: 66.7 ± 6.6 mL/min
[3]; l-arginine alone, five 6 gram IV boluses at 5 min intervals, mean±SE, listed as L-arginine, hydrochloride
  LAD Flow, Max Effect: 66.7 ± 6.6 mL/min
[3]; l-arginine fifth dose compared with mannitol
  change in coronary blood flow relative to the change expected for a similar change in osmolality: 2.6 times
[4]
  L-arginine levels: 6900 ± 600 µmol
[5]
  T1/2: 10 min
  Volume distribution: 0.36 L/kg

## O=[N+]([O-])OCC(CO[N+](=O)[O-])O[N+](=O)[O-] [Nitroglycerin, nitroglycerin]
[3]; in vivo, iv
  CO, Max Effect: 9.1 ± 0.7 L/min
  CVP, Max Effect: 9.9 ± 1.0 mmHg
  CVR, Max Effect: 98.9 ± 9.8 dynes*sec*cm^−5*10^3
  HR, Max Effect: 128.3 ± 9.0 beats/min
  LAD Flow, Max Effect: 65.4 ± 6.7 mL/min
  MAP, Max Effect: 103.9 ± 6.6 mmHg
  SVR, Max Effect: 882.8 ± 98.6 dynes*sec*cm^−5

## CCCc1nn(C)c2c(=O)[nH]c(-c3cc(S(=O)(=O)N4CCN(C)CC4)ccc3OCC)nc12 [sildenafil]
[3]; [7]
  LAD flow, peak: 87.6 ± 7.3 mL/min
  Mean arterial pressure, min.: 78.7±7.0 mmHg
  cardiac output, peak: 10.5 ± 0.8 L/min
  central venous pressure, min.: 9.1±1.1 mmHg
  coronary vascular resistance, min.: 54.7±5.3 dynes*sec*cm^−5*10^3
  heart rate, peak: 165.0±8.9 beats/min
  systemic vascular resistance, min.: 612.2±61.1 dynes*sec*cm^−5
[3]; [8]
  duration of effects on MAP, CVP, CVR, and SVR: persisted through the fifteen-minute observation period
  duration of increase in cardiac output (disappeared after): three
  duration of increase in heart rate: about five
  increase in cardiac output: 1.2 L/min
[3]; sildenafil 100 mg IV before l-arginine boluses, P<0.05
  effect of sildenafil on the l-arginine-induced change in LAD flow: potentiated the effects of 1-arginine on LAD flow
[3]; sildenafil i.v. bolus
  time of peak hemodynamic effect following injection: approximately two
